Laboratory results taken from US5134156A, “Pharmaceutical composition and method for angiogenesis inhibition” (Zaidan Hojin Biseibutsu Kagaku Kai, priority 1989, dated 1992).

Assays:
[1] = test system: angiogenesis in chorio-allantoic membrane (CAM) of the chicken embryo; assay: Inhibition of angiogenesis in chorio-allantoic membrane (CAM) of the chicken embryo in the incubated chicken egg; type: in vivo; settings: for Degree of Inhibition I: number of CAM / Degree of Inhibition II: number of CAM / Degree of Inhibition III: number of CAM / Degree of Inhibition 0: number of CAM: n = 5 tested CAM, 2 days incubation; for Degree of Inhibition I: number of CAM: I-degree: avascular area 2 mm to 4 mm in diameter; for Degree of Inhibition II: number of CAM: II-degree: avascular area 4 mm to 6 mm in diameter; for Degree of Inhibition III: number of CAM: III-degree: avascular area greater than 6 mm in diameter; for Degree of Inhibition 0: number of CAM: zero-degree: avascular area less than 2 mm in diameter
Experimental: (§1) Fertilized chicken eggs were incubated for 4 days, and one hole was then bored by a gimlet at the top of the air chamber of the incubated eggs and another hole was bored at the lower lateral part of the egg. The white of egg (about 2 ml) was removed by suction at the lower hole of the egg. The air within the air chamber was sucked off through the hole bored at the top of the air chamber of the egg so that the eggshell membrane was released from the chorio-allantoic membrane (CAM) of the chicken embryo. The hole at the lower lateral part of the egg was then sealed. A part of the eggshell was then cut off from the top of the air chamber of the egg and a silicone ring having an inner diameter of 3 mm was placed directly on the chorio-allantoic membrane (having a diameter of 1 to 3 mm) in each egg, followed by pouring a solution (10 μl) containing a predetermined amount of actinonin and 1% methylcellulose in physiological saline into the silicone ring. The top of the air chamber of the egg was covered by a cap and the eggs were then further incubated for 2 days in an incubator. After this further incubation for 2 days, intralipid was injected into the CAM and the CAM so treated was photographed for estimation of the development of blood vessels.
Degree of inhibition to the angiogenesis was evaluated in term of the following four scales of zero degree to III-degree, according to the method of Crum et al (see Crum R., Szabo S., and Folkman J.; A new class of steroid inhibits angiogenesis in the presence of heparin or a heparin fragment in the "Science" 230, pp. 1375-1378 (1985)). Thus, the degree of inhibition to angiogenesis were estimated as follows:
Zero-degree . . . The avasuclar area where the blood vessels were not developed has a size of less than 2 mm in its diameter.
I-degree . . . The avascular area has a size of from 2 mm to 4 mm in its diameter.
II-degree . . . The avascular area has a size of from 4 mm to 6 mm in its diameter.
III-degree . . . The avascular area has a size of greater than 6 mm in its diameter.
In Table 1 below, there are shown the estimated degrees of the angiogenesis-inhibiting activity of actinonin at a dose of 10 to 100 μg per CAM.

[2] = test system: chorio-allantoic membrane; assay: Development/formation of chorio-allantoic membrane in the incubated chicken egg; type: in vivo
Experimental: as §1

[3] = test system: chicken embryo; assay: Growth of the chicken embryo, visually observed; type: in vivo; settings: 500 μg to 10 μg per CAM
Experimental: as §1

[4] = test system: mice; assay: Acute toxicity tests in mice by intravenous injection; type: in vivo; settings: 400 mg/kg
[5] = test system: angiogenesis in chorio-allantoic membrane (CAM) of the chicken embryo; assay: Inhibition of angiogenesis in chorio-allantoic membrane (CAM) of the chicken embryo in the incubated chicken egg; type: in vivo; settings: 500 μg to 10 μg per CAM
[6] = test system: aminopeptidase M; settings: known from the literature; cited from earlier work
[7] = Kokai No. 15840/86 and U.S. Pat. No. 4,663,342; cited from earlier work
[8] = Kokai No. 4228/87; cited from earlier work
[9] = I.A.M. Symposia on Microbiology, No. 6 and U.S. Pat. No. 3,240,787; cited from earlier work

CCCCC[C@H](CC(=O)NO)C(=O)N[C@H](C(=O)N1CCC[C@H]1CO)C(C)C [actinonin]
Activity inhibitory to the angiogenesis in CAM ([1]; 10 μg/CAM): shows a high activity inhibitory to the angiogenesis in CAM | Degree of Inhibition I: number of CAM ([1]; 10 μg/CAM): 2 | Degree of Inhibition II: number of CAM ([1]; 10 μg/CAM): 1 | Degree of Inhibition III: number of CAM ([1]; 10 μg/CAM): 1 | Degree of Inhibition 0: number of CAM ([1]; 10 μg/CAM): 1 | Degree of Inhibition I: number of CAM ([1]; 50 μg/CAM): 1 | Degree of Inhibition II: number of CAM ([1]; 50 μg/CAM): 2 | Degree of Inhibition III: number of CAM ([1]; 50 μg/CAM): 1 | Degree of Inhibition 0: number of CAM ([1]; 50 μg/CAM): 1 | Degree of Inhibition I: number of CAM ([1]; 100 μg/CAM): 1 | Degree of Inhibition II: number of CAM ([1]; 100 μg/CAM): 1 | Degree of Inhibition III: number of CAM ([1]; 100 μg/CAM): 1 | Degree of Inhibition 0: number of CAM ([1]; 100 μg/CAM): 2 | Angiogenesis-inhibiting activity ([1]; doses of 10 to 100 μg per CAM): shows an angiogenesis-inhibiting activity | Inhibition to the development of chorio-allantoic membrane ([2]; 500 μg to 10 μg per CAM, compared to untreated membranes): chorio-allantoic membranes of smaller dimensions as compared to those of the untreated membranes | Inhibition of the formation of chorio-allantoic membrane ([2]; conclusion from the CAM test): without inhibiting the formation of chorio-allantoic membrane | Growth of the chicken embryo as a whole [3]: it was not found that the growth of the chicken embryo as a whole can be inhibited | Deaths in acute toxicity tests [4]: no deaths | Inhibition of angiogenesis in the chorio-allantoic membrane [5]: can inhibit the angiogenesis | Activity inhibitory to aminopeptidase M [6]: exhibits an activity inhibitory to aminopeptidase M | Immunopotentiating effect [7]: effective as an immunopotentiating agent | Analgesic effect [8]: effective as an analgesic agent | Antibacterial activity [9]: antibacterially active
